Results as given in publication PMC9818267, “Brain Natriuretic Peptide Protects Cardiomyocytes from Apoptosis and Stimulates Their Cell Cycle Re-Entry in Mouse Infarcted Hearts” (Cells, 2022).
No end group written: not given here.

What was measured:
[1] = cited from earlier work
p38 = test: Western blot pp38/p38 in adult CMs stimulated in vitro; assay type: cell-based, mouse; settings: adult CMs stimulated with BNP for 2–3 h in vitro, vs untreated
Procedure: (§1) CM isolations were performed thanks to the Langendorff-Free method. […] Thereafter, the heart was removed from the chest and the left ventricle was perfused with enzymatic solution containing collagenase II (120 U/mL), collagenase IV (120 U/mL) (Worthington, Biochemical Corporation, USA) and protease XIV (0.05 mg/mL or 0.175 U/mL) (Sigma-Aldrich, Merck, Darmstadt, Germany). In each experiment, a full digestion of the heart was obtained. After digestion, cardiac cells were dissociated by gentle pipetting, filtered and collected after 25 min sedimentation. For infarcted hearts, the tissue was separated into the three zones (ZI, BZ and RZ). The three different areas were weighted before gentle pipetting.
(§2) Total proteins were extracted from CMs isolated from adult infarcted and unmanipulated neonatal and adult hearts. Proteins were transferred to nitrocellulose membranes (Biorad) before incubation with primary antibodies overnight at 4 °C. Secondary antibodies were added 1 h at RT in the dark (Supplementary File S1). The signal was detected and quantified with the Odyssey infrared imaging system (LI-COR. Biosciences, Bad Homburg, Germany). All results were normalized to the tubulin protein level or to the total protein level thanks to stainings with the Revert 700 Total protein Stain (LI-COR).

phospholamban (PLB) = test: Western blot pPLB/PLB in CMs isolated from BNP-injected hearts; assay type: in vivo, mouse; settings: vs saline
Procedure: (§3) BNP was injected into infarcted adults, and unmanipulated neonatal and adult mice. Directly after surgery, NaCl (saline) or BNP (1.3 µg/20 g in 20 µL) was injected into the left ventricle cavity. At 24 h after MI, mice were intraperitoneal (ip) injected with BNP (2 µg/20 g mice) or saline every 2 days. C57BL/6 mice were sacrificed 1- and 14 days post-MI and Myh6 MerCreMer mice were sacrificed 14 days post-MI (Figure 1A). Neonatal C57BL/6 mice (3 days after birth) were injected ip with NaCl or BNP every two days (1 µg/2 g; Bachem; synthetic mouse BNP (1–45) peptide (catalog number H-7558)). Mice were sacrificed 11 days after birth (Figure 1B). Eight week old C57 BL/6 mice or Myh6 MerCreMer unmanipulated mice were injected ip with BNP (2 µg/20 g mice) or NaCl every two days (Figure 1C). Two weeks after the first injection, mice were sacrificed. To assess for the implication of the ERK signaling pathway in the BNP effect on CMs, PD0325901 (60 µg/20 g mice in 80 µL) was administered by gavage in adult unmanipulated mice 1 h before BNP injection (2 µg/20 g mice).
as §1, §2

ERK = test: Western blot pERK/ERK in CMs isolated from BNP-treated hearts; assay type: in vivo, mouse; settings: CMs isolated from BNP-treated adult unmanipulated hearts (injection 2–3 h before isolation), vs saline
Procedure: as §3
CM isolations were performed thanks to the Langendorff-Free method. […]
Total proteins were extracted from CMs isolated from adult infarcted and unmanipulated neonatal and adult hearts. […] The signal was detected and quantified with the Odyssey infrared imaging system (LI-COR. Biosciences, Bad Homburg, Germany). […]

cardiomyocytes (CMs) = test: Immunostaining of cell cycle markers (BrdU, Ki67, pH3, Aurkb) in CMs of BNP-treated hearts; assay type: in vivo, mouse
Procedure: For all experiments with adult mice, BrdU (1 mg/mL) was added into the drinking water during the entire period of the experiments. BrdU (40 µL/mice, 10 mg/mL) was ip injected in newborn mice on day 5 and 9 after birth.
Cells or OCT heart sections (5 µm-thick cryosections) were washed in PBS 1X and fixed in paraformaldehyde (2%) or formol (4%) for 10 min at RT. After 10 min of permeabilization (0.3% Triton x-100 in PBS) and one hour of blocking with normal serum, sections were probed with primary antibodies overnight at 4 °C (Supplementary File S1). The second day, the secondary antibody was added on cells or heart sections. Slides were mounted with Dabco (Sigma) and pictures were captured with Nikon Eclipse TS100 or 90i microscope. Images were processed with Adobe Photoshop CC2015.
For the detection of BrdU incorporation, heart slides were fixed 10 min in 2% PFA, DNA was denatured 1 h at RT in HCl 2N before neutralization in Na Borate 0.1 M pH = 8.5 during 2 × 5 min. Then, sections were probed with primary antibodies overnight at 4 °C (Supplementary File S1).

[2] = rats with myocardial damage; cited from earlier work
DAPI+ Troponin I+ cells = test: Flow cytometry of apoptotic CMs (DAPI+ Troponin I+ cells) after isolation; assay type: in vivo, mouse; settings: CMs isolated from adult hearts injected during 2 weeks with BNP; saline 3.5 ± 0.5%
cGMP = settings: BNP-treated infarcted mice, cited from earlier work
Procedure: In previous work, we followed the BNP kinetic by measuring the cGMP level in the hearts and plasma of BNP-treated infarcted mice. 30 min after BNP injections, the cGMP level is increased in the hearts of treated mice and returns to normal 1 h after injection. In the circulation of treated mice, cGMP level is increased from 1 h to 24 h after ...

[3] = infarct and border area 10 days after MI, BNP vs saline
[4] = neonatal BNP-treated hearts vs saline
[5] = unmanipulated adult hearts, BNP vs saline

For “Brain Natriuretic Peptide (SQGSTLRVQQRPQNSKVTHISSCFGHKIDRIGSVSRLGCNALKLL; not fully specified; ends and bridges not checked; UniProt P40753 77-121, looked up) [BNP, synthetic mouse BNP (1–45) peptide (Bachem, catalog number H-7558)]”, the “half-life in the circulation” value ([1]; healthy persons) is given as “about 18 min”, the “half-life in the plasma” value ([1]; patients with congestive heart failure) is given as about 12 min and the pp38/p38 ratio (p38) is given as “did not change”. For the same substance, the pPLB/PLB ratio change (phospholamban (PLB); CMs from remote zone (RZ) of infarcted hearts after BNP injections) was −32%, the pPLB/PLB ratio increase (phospholamban (PLB); CMs from unmanipulated adult hearts after BNP injections (2–3 h before CM isolation)) was 1.5 × and the pPLB/PLB ratio increase (phospholamban (PLB); CMs from unmanipulated neonatal hearts after BNP injections) was 3.5 ×. For the same substance, the pPLB/PLB ratio increase (phospholamban (PLB); CMs isolated from border zone (BZ) of infarcted hearts after BNP injections) was 2.7 ×, the pERK/ERK ratio increase (ERK) was 1.6 × and the “increase of percentage of BrdU+ GFP+ α actinin+ cells among GFP+ α actinin+ cells” value (cardiomyocytes (CMs); ZI+BZ of infarcted Myh6 MerCreMer mice injected with tamoxifen, BNP vs saline) was 20%. For the same substance, the “increase of percentage of CMs expressing Aurkb” value (cardiomyocytes (CMs); [3]) was 2.8 ×, the “increase of percentage of CMs expressing Ki67” value (cardiomyocytes (CMs); [3]) was 50% and the “increase of percentage of CMs expressing pH3” value (cardiomyocytes (CMs); [3]) was 40%. For the same substance, the “increase of percentage of CMs incorporating BrdU” value (cardiomyocytes (CMs); [3]) was 70%, the “number of Aurkb+ CMs undergoing cytokinesis or binucleation” value (cardiomyocytes (CMs); infarcted hearts, among Aurkb+ CMs, BNP vs saline) was “slightly increased” and the “increase of number of Aurkb+ CMs undergoing cytokinesis or binucleation” value (cardiomyocytes (CMs); [4]) was 1.4 fold. The “increase of number of CMs expressing Aurkb” value (cardiomyocytes (CMs); [4]) was 47.5%, the “increase of number of CMs expressing Ki67” value (cardiomyocytes (CMs); [4]) was 15% and the “increase of number of CMs expressing pH3” value (cardiomyocytes (CMs); [4]) was 41%. For the same substance, the “increase of number of CMs incorporating BrdU” value (cardiomyocytes (CMs); [4]) was 23%, the “increase of percentage of CMs expressing pH3” value (cardiomyocytes (CMs); [5]) was 94% and the “increase of percentage of CMs incorporating BrdU” value (cardiomyocytes (CMs); [5]) was 67%. The half-life [2] was “about 1.2 min”, the “percentage of DAPI+ CMs” value (DAPI+ Troponin I+ cells) was 4 ± 1% and the “cGMP level in the hearts” value (cGMP; 30 min after injection, returns to normal 1 h after injection) was “increased”. The “cGMP level in the circulation” value (cGMP; from 1 h to 24 h after injections) was “increased”.
